How the values were obtained:
MCL-1 protein = MCL-1 protein (Homo sapiens, UniProt Q07820); assay: OPM-2 cells: MCL-1 protein degradation, Simple Western; type: cell-based; design: endogenous in cells; host or cells: OPM-2; settings: OPM-2 cell line, 6 h treatment, 100 nM compound, vs DMSO
In short: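 OPM-2 cells in RPMI-1640 with 1% FBS treated with compounds (0.5% DMSO) for 6 h at 100 nM. Lysates analysed by automated capillary Simple Western with MCL-1 D35A5 antibody; % MCL-1 reduction versus DMSO-treated cells (0%).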

[1] = biological target: [MCL-1]-[compound of formula (I)]-[CRBN/DDB1] complex (Homo sapiens, UniProt Q07820+Q96SW2); assay: HTRF ternary complex assay; type: binding; settings: ternary complex formation; read-out: HTRF ternary complex Average pEC50 by molecule (converted)
Sequence of [MCL-1]-[compound of formula (I)]-[CRBN/DDB1] complex (Q07820 whole entry): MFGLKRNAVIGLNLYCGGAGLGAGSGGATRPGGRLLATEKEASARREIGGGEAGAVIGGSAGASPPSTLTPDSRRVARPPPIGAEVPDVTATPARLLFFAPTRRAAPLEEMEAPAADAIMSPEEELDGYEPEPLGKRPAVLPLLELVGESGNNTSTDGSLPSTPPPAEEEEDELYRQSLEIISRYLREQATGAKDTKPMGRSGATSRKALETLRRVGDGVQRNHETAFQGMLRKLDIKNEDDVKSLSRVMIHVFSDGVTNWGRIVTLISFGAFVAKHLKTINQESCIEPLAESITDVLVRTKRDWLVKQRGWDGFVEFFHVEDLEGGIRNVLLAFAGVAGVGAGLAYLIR
Sequence of [MCL-1]-[compound of formula (I)]-[CRBN/DDB1] complex (Q96SW2 whole entry): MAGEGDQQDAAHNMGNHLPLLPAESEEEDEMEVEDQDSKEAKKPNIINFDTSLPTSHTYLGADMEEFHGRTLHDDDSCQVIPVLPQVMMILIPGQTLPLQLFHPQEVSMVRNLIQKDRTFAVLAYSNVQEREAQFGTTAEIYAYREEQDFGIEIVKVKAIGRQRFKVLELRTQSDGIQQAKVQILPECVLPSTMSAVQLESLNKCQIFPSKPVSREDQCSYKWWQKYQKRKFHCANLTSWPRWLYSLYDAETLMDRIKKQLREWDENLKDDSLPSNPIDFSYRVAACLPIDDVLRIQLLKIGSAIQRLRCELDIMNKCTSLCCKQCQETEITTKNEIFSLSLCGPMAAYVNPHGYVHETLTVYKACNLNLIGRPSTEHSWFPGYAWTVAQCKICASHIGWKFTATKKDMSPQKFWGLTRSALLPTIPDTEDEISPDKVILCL
Sequence of [MCL-1]-[compound of formula (I)]-[CRBN/DDB1] complex (Q16531 whole entry partner): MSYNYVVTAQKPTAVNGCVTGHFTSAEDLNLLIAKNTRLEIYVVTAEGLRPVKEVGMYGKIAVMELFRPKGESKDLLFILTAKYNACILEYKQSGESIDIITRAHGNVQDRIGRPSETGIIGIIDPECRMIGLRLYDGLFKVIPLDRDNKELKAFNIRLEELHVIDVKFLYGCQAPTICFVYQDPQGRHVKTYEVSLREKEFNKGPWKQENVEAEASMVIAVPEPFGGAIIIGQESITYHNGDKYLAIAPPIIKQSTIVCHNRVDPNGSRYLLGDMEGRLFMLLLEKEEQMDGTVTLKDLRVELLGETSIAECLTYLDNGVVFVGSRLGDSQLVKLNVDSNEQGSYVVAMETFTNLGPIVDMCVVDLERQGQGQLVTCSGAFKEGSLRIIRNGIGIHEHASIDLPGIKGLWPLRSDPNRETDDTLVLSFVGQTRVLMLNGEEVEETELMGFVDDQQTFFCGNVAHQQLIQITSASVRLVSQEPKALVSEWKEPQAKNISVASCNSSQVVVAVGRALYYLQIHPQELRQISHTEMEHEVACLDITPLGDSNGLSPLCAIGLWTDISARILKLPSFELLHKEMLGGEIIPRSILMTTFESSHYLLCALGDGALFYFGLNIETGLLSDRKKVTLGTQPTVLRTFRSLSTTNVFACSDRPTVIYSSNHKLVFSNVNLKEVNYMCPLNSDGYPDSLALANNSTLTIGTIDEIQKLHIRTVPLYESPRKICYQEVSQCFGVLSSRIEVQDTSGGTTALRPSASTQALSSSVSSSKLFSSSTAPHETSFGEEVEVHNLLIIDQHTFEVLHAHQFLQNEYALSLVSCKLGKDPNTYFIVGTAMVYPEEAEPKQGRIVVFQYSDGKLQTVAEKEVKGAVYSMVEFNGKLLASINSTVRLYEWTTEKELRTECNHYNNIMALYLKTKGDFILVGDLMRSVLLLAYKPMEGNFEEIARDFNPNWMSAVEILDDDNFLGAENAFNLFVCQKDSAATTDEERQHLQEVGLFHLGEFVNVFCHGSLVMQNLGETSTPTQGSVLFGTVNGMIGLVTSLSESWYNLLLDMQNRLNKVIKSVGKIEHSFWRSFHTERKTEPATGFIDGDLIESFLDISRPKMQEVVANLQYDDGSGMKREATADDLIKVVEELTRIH
In short: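 hMcl-1 and CRBN (mix at 48 nM and 105.6 nM) with Streptavidin-Eu cryptate and anti-6×His-d2 in PPI Europium buffer with 2 mM DTT; compounds in dose-response, 0.5% DMSO. Incubated 180 min at 25° C, TR-FRET 665/620 read. Bell-shaped curve fitted by Gaussian; EC50 reported.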

DMS 114 cells = assay: Cell viability assay (CellTiter-Glo), DMS 114; type: cell-based; settings: 72 hours incubation, 10% FBS
Text: The effect of various compounds of the invention on the viability of DMS 114 cell line was investigated, using the CTG protocol described below.
DMS 114 cell line is derived from small-cell lung cancer, which is described in the literature as MCL-1 dependent lines [Yasuda Y et al. Cell Death & Disease 2020; 11: 177].
DMS 114 cells were detached with trypsin and then resuspended in growth medium containing 10% FBS and counted. Cell suspension was then adjusted to 5×10^4 cells/ml using growth medium containing 10% FBS. Afterwards, […] were seeded on 384-well plates (50 μl). Plates were then placed in the incubator overnight until treated. Next day, compounds were added using ECHO 555 liquid handler. Compound concentrations used in this assay: 1/3 dilutions starting at 30 uM (9 to 12 points).
After 72 hours of incubation, cell viability was evaluated using CellTiter-Glo Luminescent Cell Viability Assay (Promega, cat #G7572). Luminescence signal was measured using a CLARIOstar Plus Multi-Mode Microplate Reader (574-590 nm).

ARH-77 cells = assay: Cell viability assay (CellTiter-Glo), ARH-77; type: cell-based; settings: Homo sapiens, ARH-77, 24 hours incubation, 1% FBS, read-out: Average pIC50 by molecule ARH-77 (converted)
In short: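 Luminescent ATP readout (CellTiter-Glo) at 24 hours measured viability, expressed relative to DMSO-treated wells. Compound was added directly to the medium as a 9–12-point threefold series starting at 30 uM, at 0.5% final DMSO. The medium contained FBS reduced to 1%.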

Sequence of MCL-1 protein (Q07820 whole entry): as the sequence (Q07820 whole entry) above

Row | Simple Western, % of protein reduction (MCL-1 protein) [%] | EC50 [1] [µM] | SMILES | IC50 (ARH-77 cells) [µM] | further results
1 | ≥40 |  | Cc1nn(C)c(C)c1-c1c(Cl)ccc2c(CCCOc3cccc4ccccc34)c(C(=O)O)n(CCN3CCN(C(=O)COc4cccc5c4C(=O)N(C4CCC(=O)NC4=O)C5=O)CC3)c12 (centres unmarked) [Compound 204, 6-chloro-1-(2-(4-(2-((2-(2,6-dioxopiperidin-3-yl)-1,3-dioxoisoindolin-4-yl)oxy)acetyl)piperazin-1-yl)ethyl)-3-(3-(naphthalen-1-yloxy)propyl)-7-(1,3,5-trimethyl-1H-pyrazol-4-yl)-1H-indole-2-carboxylic acid] |  | 
2 | ≥20 |  | Cc1nn(C)c(C)c1-c1c(F)ccc2c(CCCOc3cccc4cc(F)ccc34)c(C(=O)O)n(CCN3CCN(C(=O)COc4cccc5c4C(=O)N(C4CCC(=O)NC4=O)C5=O)CC3)c12 (centres unmarked) [Compound 215, 1-{2-[4-(2-{[2-(2,6-dioxopiperidin-3-yl)-1,3-dioxo-2,3-dihydro-1H-isoindol-4-yl]oxy}acetyl)piperazin-1-yl]ethyl}-6-fluoro-3-{3-[(6-fluoronaphthalen-1-yl)oxy]propyl}-7-(1,3,5-trimethyl-1H-pyrazol-4-yl)-1H-indole-2-carboxylic acid] |  | 
3 |  | < 0.1 | Cc1nn(C)c(C)c1-c1c(Cl)ccc2c(CCCOc3cccc4cc(F)ccc34)c(C(=O)O)n(CCN3CCN(C(=O)COc4cccc5c4CN(C4CCC(=O)NC4=O)C5=O)CC3)c12 (centres unmarked) [Compound 220, 6-chloro-1-{2-[4-(2-{[2-(2,6-dioxopiperidin-3-yl)-1-oxo-2,3-dihydro-1H-isoindol-4-yl]oxy}acetyl)piperazin-1-yl]ethyl}-3-{3-[(6-fluoronaphthalen-1-yl)oxy]propyl}-7-(1,3,5-trimethyl-1H-pyrazol-4-yl)-1H-indole-2-carboxylic acid] | > 10 | Average pIC50 by molecule DMS 114 (DMS 114 cells): ≥6.5
4 |  | < 0.01 | Cc1nn(C)c(C)c1-c1c(Cl)ccc2c(CCCOc3cccc4cc(F)ccc34)c(C(=O)O)n(CCN3CCN(C(=O)Cn4c(C)nc5c(C(=O)NC6CCC(=O)NC6=O)cccc54)CC3)c12 (centres unmarked) [Compound 268, 6-chloro-1-{2-[4-(2-{4-[(2,6-dioxopiperidin-3-yl)carbamoyl]-2-methyl-1H-1,3-benzodiazol-1-yl}acetyl)piperazin-1-yl]ethyl}-3-{3-[(6-fluoronaphthalen-1-yl)oxy]propyl}-7-(1,3,5-trimethyl-1H-pyrazol-4-yl)-1H-indole-2-carboxylic acid] |  | 
5 |  |  | Cc1nn2c(c1-c1c(Cl)ccc3c(CCCOc4cccc5cc(F)ccc45)c(C(=O)O)n(CCN4CCN(C(=O)COc5cccc6c5CN(C5CCC(=O)NC5=O)C6=O)CC4)c13)COCC2 (centres unmarked) [Compound 346, 6-Chloro-1-(2-(4-(2-((2-(2,6-dioxopiperidin-3-yl)-1-oxoisoindolin-4-yl)oxy)acetyl)piperazin-1-yl)ethyl)-3-(3-((6-fluoronaphthalen-1-yl)oxy)propyl)-7-(2-methyl-6,7-dihydro-4H-pyrazolo[5,1-c][1,4]oxazin-3-yl)-1H-indole-2-carboxylic acid] | > 10 | IC50 (DMS 114 cells; Homo sapiens, DMS-114, 72 h, read-out: Average pIC50 by molecule DMS 114 (converted)): ≤ 3.16 µM
